A short description of series [1]: Compound induced cellular toxicity in HepG2 cells (ATPlite). The class given is cell-based. To be noted: human, three days, ATPlite 1 Step, concentration reducing total ATP levels by 50% relative to no drug controls. The protocol:
At day 3, post seeding cells are treated with ATPlite 1 Step according to the manufacturer's instructions.

The test system of series [2] is 2.2.15 cells. The experiment in a line: Antiviral activity in 2.2.15 cells: reduction of viral product accumulation (qPCR, HBsAg/HBeAg ELISA). To be noted: Hepatitis B virus, 120 h, day 5 post treatment, concentration reducing viral product accumulation in cell lysates or supernatants by 50% relative to no drug controls. The format is cell-based, HBV. The method in brief: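 HBV-producing 2.2.15 cells, 35,000/well, treated with 5-fold serial compound dilutions at 0.5% final DMSO for 5 days. Lysate HBV DNA by qPCR or supernatant HBsAg/HBeAg by ELISA; EC50 is 50% reduction versus no-drug control, binned A<0.1 μM, B 0.1-1 μM, C>1 μM.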

Results on 18 compounds are retold here after patent US10865211B2 (ENANTA PHARMACEUTICALS, INC, priority 2018, dated 2020).

Broadly, the CC50 is the concentration that lowers cell viability or growth by half. Lower therefore signals harm at low concentration. The EC50 is the concentration that produces a half-maximal response. Read a low EC50 as a more potent agent.

Each structure is given as a SMILES string. Some results are limits rather than exact numbers.

In the case of `CC(C)(C)[C@@H]1Cc2c(oc3c(-c4cscn4)cccc23)-c2c(F)c(=O)c(C(=O)O)cn21` [Example 62, (S)-6-(tert-butyl)-1-fluoro-2-oxo-11-(thiazol-4-yl)-6,7-dihydro-2H-benzofuro[2,3-a]quinolizine-3-carboxylic acid], the CC50 at 3 days in series [1] is 10 to 25 µM. In series [2], this compound returned an EC50 below 0.1 µM.

With `CC(C)[C@@H]1Cc2c(oc3c(C#N)cccc23)-c2cc(=O)c(C(=O)O)cn21` [Example 78, (S)-11-cyano-6-isopropyl-2-oxo-6,7-dihydro-2H-benzofuro[2,3-a]quinolizine-3-carboxylic acid], the CC50 at 3 days in series [1] is above 25 µM. This compound registered an EC50 in series [2] below 0.1 µM.

`COc1cccc2c3c(oc12)-c1cc(=O)c(C(=O)O)cn1[C@H](C(C)(C)C)C3` [Example 45, (S)-6-(tert-butyl)-11-methoxy-2-oxo-6,7-dihydro-2H-benzofuro[2,3-a]quinolizine-3-carboxylic acid] showed a CC50 at 3 days in series [1] above 25 µM. The EC50 in series [2] is below 0.1 µM.

The compound `CC(C)[C@@H]1Cc2c(oc3c(-c4cnco4)cccc23)-c2cc(=O)c(C(=O)O)cn21` [Example 84, (S)-6-isopropyl-11-(oxazol-5-yl)-2-oxo-6,7-dihydro-2H-benzofuro[2,3-a]quinolizine-3-carboxylic acid] displayed a CC50 at 3 days in series [1] above 25 µM. The EC50 in series [2] is below 0.1 µM.

The compound `CC(C)(C)[C@@H]1Cc2c(oc3cc(OC(F)F)ccc23)-c2cc(=O)c(-c3ncn[nH]3)cn21` [Example 7, (S)-6-(tert-butyl)-10-(difluoromethoxy)-3-(1H-1,2,4-triazol-5-yl)-6,7-dihydro-2H-benzofuro[2,3-a]quinolizin-2-one] displayed a CC50 at 3 days in series [1] above 25 µM. In addition, the EC50 in series [2] was below 0.1 µM.

`CCC1Cc2c(oc3ccccc23)-c2cc(=O)c(C(=O)O)cn21` (stereo not drawn) [Example 1, 6-ethyl-2-oxo-6,7-dihydro-2H-benzofuro[2,3-a]quinolizine-3-carboxylic acid]: the CC50 at 3 days in series [1] is above 25 µM. The compound also displayed an EC50 in series [2] of 0.1 to 1 µM.

`CC(C)(C)[C@@H]1Cc2c(oc3c(OC(F)F)cccc23)-c2cc(=O)c(C(=O)O)cn21` [Example 4, (S)-6-(tert-butyl)-11-(difluoromethoxy)-2-oxo-6,7-dihydro-2H-benzofuro[2,3-a]quinolizine-3-carboxylic acid] registered a CC50 at 3 days in series [1] above 25 µM. In addition, the EC50 in series [2] is below 0.1 µM.

As for `CC(C)[C@@H]1Cc2c(oc3cc(C#N)ccc23)-c2cc(=O)c(C(=O)O)cn21` [Example 69, (S)-10-cyano-6-isopropyl-2-oxo-6,7-dihydro-2H-benzofuro[2,3-a]quinolizine-3-carboxylic acid], the CC50 at 3 days in series [1] is above 25 µM. This compound registered an EC50 in series [2] below 0.1 µM.

In series [1], `CC(C)(C)[C@@H]1Cc2c(oc3c(-c4cn[nH]c4)cccc23)-c2cc(=O)c(C(=O)O)cn21` [Example 32, (S)-6-(tert-butyl)-2-oxo-11-(1H-pyrazol-4-yl)-6,7-dihydro-2H-benzofuro[2,3-a]quinolizine-3-carboxylic acid] displayed a CC50 at 3 days above 25 µM. Besides, in series [2], the EC50 is below 0.1 µM.

As for `CC(C)(C)[C@@H]1Cc2c(oc3c(C4CC4)cccc23)-c2c(F)c(=O)c(C(=O)O)cn21` [Example 65, (S)-6-(tert-butyl)-11-cyclopropyl-1-fluoro-2-oxo-6,7-dihydro-2H-benzofuro[2,3-a]quinolizine-3-carboxylic acid], the CC50 at 3 days in series [1] is above 25 µM. Further, the EC50 in series [2] was below 0.1 µM.

Take `CC(C)(C)[C@@H]1Cc2c(oc3c(-c4cnsc4)cccc23)-c2cc(=O)c(C(=O)O)cn21` [Example 38, (S)-6-(tert-butyl)-11-(isothiazol-4-yl)-2-oxo-6,7-dihydro-2H-benzofuro[2,3-a]quinolizine-3-carboxylic acid]: in series [1], the CC50 at 3 days was 10 to 25 µM. In series [2], this compound registered an EC50 below 0.1 µM.

Compound `CC(C)[C@@H]1Cc2c(oc3cc(C4CC4)ccc23)-c2cc(=O)c(C(=O)O)cn21` [Example 74, (S)-10-cyclopropyl-6-isopropyl-2-oxo-6,7-dihydro-2H-benzofuro[2,3-a]quinolizine-3-carboxylic acid] returned a CC50 at 3 days in series [1] of 10 to 25 µM. In series [2], this compound registered an EC50 below 0.1 µM.

With `CC(C)(C)[C@@H]1Cc2c(oc3c(C4CC4)cccc23)-c2cc(=O)c(C(=O)O)cn21` [Example 43, (S)-6-(tert-butyl)-11-cyclopropyl-2-oxo-6,7-dihydro-2H-benzofuro[2,3-a]quinolizine-3-carboxylic acid], the CC50 at 3 days in series [1] is 10 to 25 µM. This compound also registered an EC50 in series [2] below 0.1 µM.

Regarding `CC(C)(C)[C@@H]1Cc2c(oc3ccccc23)-c2cc(=O)c(C(=O)O)cn21` [Example 3, (S)-6-(tert-butyl)-2-oxo-6,7-dihydro-2H-benzofuro[2,3-a]quinolizine-3-carboxylic acid], the CC50 at 3 days in series [1] is above 25 µM. In series [2], this compound came in with an EC50 below 0.1 µM.

For `Cn1ccc(-c2cccc3c4c(oc23)-c2cc(=O)c(C(=O)O)cn2[C@H](C(C)(C)C)C4)n1` [Example 30, (S)-6-(tert-butyl)-11-(1-methyl-1H-pyrazol-3-yl)-2-oxo-6,7-dihydro-2H-benzofuro[2,3-a]quinolizine-3-carboxylic acid], the CC50 at 3 days in series [1] is 10 to 25 µM. The compound also returned an EC50 in series [2] below 0.1 µM.

With `CC(C)(C)[C@@H]1Cc2c(oc3c(-n4cccn4)cccc23)-c2c(F)c(=O)c(C(=O)O)cn21` [Example 63, (S)-6-(tert-butyl)-1-fluoro-2-oxo-11-(1H-pyrazol-1-yl)-6,7-dihydro-2H-benzofuro[2,3-a]quinolizine-3-carboxylic acid], the CC50 at 3 days in series [1] is above 25 µM. Besides, the EC50 in series [2] was below 0.1 µM.

With `CC(C)(C)[C@@H]1Cc2c(oc3c(-c4ccn[nH]4)cccc23)-c2cc(=O)c(C(=O)O)cn21` [Example 33, (S)-6-(tert-butyl)-2-oxo-11-(1H-pyrazol-5-yl)-6,7-dihydro-2H-benzofuro[2,3-a]quinolizine-3-carboxylicacid], the CC50 at 3 days in series [1] was above 25 µM. Besides, the EC50 in series [2] is below 0.1 µM.

Compound `CC(C)(C)[C@@H]1Cc2c(oc3c(-c4cccs4)cccc23)-c2cc(=O)c(C(=O)O)cn21` [Example 37, (S)-6-(tert-butyl)-2-oxo-11-(thiophen-2-yl)-6,7-dihydro-2H-benzofuro[2,3-a]quinolizine-3-carboxylic acid] yielded a CC50 at 3 days in series [1] above 25 µM. Moreover, in series [2], the EC50 is below 0.1 µM.
